In US11134889B2, “Treatment of a disease of the gastrointestinal tract with a SMAD7 inhibitor” (Progenity, Inc., priority 2016, dated 2021):

Test: Tacrolimus tissue pharmacokinetics, oral vs intra-cecal ingestible device delivery
Type: in vivo, Yorkshire-Cross farm swine
Conditions: swine; intra-cecal as compared to oral administration, 12 hours post-dose
Protocol: The primary objective of this study was to compare the tissue, plasma, rectal sample, and GI content pharmacokinetics of tacrolimus through oral versus intra-cecal ingestible device delivery in normal Yorkshire-Cross farm swine.
No further randomization procedure was employed.
Animals in Group 1 received an ingestible device containing 0.8 mL of vehicle solution (80% alcohol, 20% HCO-60). Animals in Group 2 received orally […] liquid formulation of tacrolimus at 4 mg/0.8 mL per animal (Prograf: 5 mg/mL). Animals in Group 3 received intra-cecally an ingestible device containing tacrolimus at 1 mg in 0.8 mL per ingestible device. […]
Approximately 200˜400 mg of rectal content were collected, if available, with a fecal swab (Copan Diagnostics Nylon Flocked Dry Swabs, 502CS01). The fecal swab was pre-weighed and weighed after collection in the collection tube (Sterile Tube and Cap No Media, PFPM913S), and the sample weight was recorded. […]
For tissue necropsy, small intestine fluid and cecal fluid were collected separately from all the animals into two separate square plastic bottles, and stored at −20° C. The length and diameter of the cecum and the colon was measured from one animal in each group and recorded for reference. […] All samples were weighed, and the tissue sample weights were recorded. […]

mean concentration in the cecum tissue and the proximate colon tissue (FIG. 76): higher
SMILES: C=CC[C@@H]1/C=C(\C)C[C@H](C)C[C@H](OC)[C@H]2O[C@@](O)(C(=O)C(=O)N3CCCC[C@H]3C(=O)O[C@H](/C(C)=C/[C@@H]3CC[C@@H](O)[C@H](OC)C3)[C@H](C)[C@@H](O)CC1=O)[C@H](C)C[C@@H]2OC [tacrolimus]
